Measured values from patent US20100183563A1, “DENTINOGENESIS PROMOTER AND DENTINOGENIC PULP-CAPPING MATERIAL” (ORGAN TECHNOLOGIES, INC., priority 2007, published 2010).

Legend:
Format in all cases: cell-based, human
[1] = test system: dental pulp stem cells (DPSCs); assay: Proliferation of dental pulp stem cells, cell number by the MTS method; conditions: for effect on proliferation of DPSCs compared with the control: 1 μM, Example 2, FIG. 5
Method: Dental pulp stem cells (DPSCs) were isolated in accordance with a method of Gronthos et al. (Proc. Natl. Acad. Sci. USA, 97: 13625-30, 2000) from a human extracted tooth that was submitted with informed consent under the permission of Okayama University Dental School Ethics Committee.
Specifically, pulp obtained from an extracted human tooth was enzyme-treated for 30 minutes at 37° C. with 3 mg/ml type 1 collagenase (Worthington Biochemicals Corp.) and 4 mg/ml dispase (Roche Diagnostic/Boehringer Mannheim Corp.), and then cultured using α-MEM culture medium containing 10% fetal bovine serum (FBS), L-ascorbic acid (0.1 mM), L-glutamine (2 mM), penicillin (100 μg/ml), and streptomycin (100 μg/ml).
Specifically, the DPSCs prepared above (1) were cultured under 5% CO2 at 37° C. in α-MEM culture medium including 10% fetal bovine serum (FBS) containing SVS at a concentration of 1 μM, L-ascorbic acid (0.1 mM), L-glutamine (2 mM), penicillin (100 μg/ml), and streptomycin (100 μg/ml). The culture medium was exchanged twice a week, and the number of cells on […] was indirectly evaluated using the MTS method (Barltrop, J. A. et al. 5-(3-carboxymethoxyphenyl)-2-(4,5-dimenthylthiazoly)-3-(4-sulfophenyl)tetrazolium, inner salt (MTS) and related analogs of 3-(4,5-dimethylthiazolyl)-2,5-diphenyl-tetrazolium bromide (MTT) reducing to purple water-soluble formazans as cell-viability indicators. Bioorg. & Med. Chem. Lett. 1, 611, 1991).
On day 0, day 3, and day 5 from the beginning of cultivation, the cell number of DPSCs was measured using the MTS method.
On day 5 from the beginning of cultivation, the cell number of DPSCs was measured using the MTS method.
Specifically, in Example 1, section (2), dental pulp stem cells (DPSCs) were cultured in the presence of each of the following: (a) simvastatin (1 μM) (simvastatin added group); (b) simvastatin (1 μM) and mevalonate (1 mM) (mevalonate added group); and (c) simvastatin (1 μM), mevalonate (1 mM) and Fasudil (10 μM) (Fasudil combined use group). On day 0, day 3, and day 5 from the beginning of cultivation, the cell number of DPSCs was measured using the MTS method.

[2] = test system: osteocalcin (OCN) gene expression in dental pulp stem cells (DPSCs); assay: Gene expression of OCN (marker of calcification) in DPSCs by RT-PCR; conditions: for gene expression of OCN compared with the control and the comparison (BMP-2): 1 μM, day 14, Example 2, FIG. 6
Method: (§1) Specifically, the DPSCs prepared above (1) were cultured under a 5% CO2 gas phase at 37° C. in α-MEM culture medium including 10% fetal bovine serum (FBS) containing SVS at a concentration of 1 μM, L-ascorbic acid (0.1 mM), L-glutamine (2 mM), penicillin (100 μg/ml), and streptomycin (100 μg/ml). Total RNA was collected from cells obtained on day 3, day 7, and day 10 from the beginning of cultivation, and gene expression of dentin sialophosphoprotein (DSPP), i.e., an odontoblast-specific marker (Ritchie H H et al. J. Biol. Chem., 269:3698-702, 1994; Butler W T et al. Matrix., 12:343-51, 1992), and gene expression of osteocalcin (OCN), i.e., a marker of calcification (Bronckers A L et al. Connect Tissue Res., 22:65-70, 1989) were evaluated using qualitative RT-PCR (Narayanan K et al., J. Biol. Chem., 281(28):19064-71, 2006).
Dental pulp stem cells (DPSCs) were cultured in a manner similar to Example 1, section (3), using simvastatin (1 μM), fluvastatin (1 μM), mevastatin (1 μM), lovastatin (1 μM), and plavastatin (200 μM) respectively as HGM-CoA reductase inhibitors. Gene expression of OCN, i.e., a marker of calcification was evaluated on day 14, using qualitative RT-PCR.

[3] = test system: dentin sialophosphoprotein (DSPP) gene expression in dental pulp stem cells (DPSCs); assay: Gene expression of DSPP (odontoblast-specific marker) in DPSCs by RT-PCR; conditions: SVS 1 μM, p=0.0111
Method: as §1

CC(O)(CCO)CC(=O)O (stereo not drawn) [mevalonate]
effect of mevalonate supply on simvastatin-induced inhibition of DPSC proliferation ([1]; simvastatin 1 μM + mevalonate 1 mM, day 5, FIG. 8): disappearance of the cell proliferation inhibiting effect

O=S(=O)(c1cccc2cnccc12)N1CCCNCC1 [Fasudil]
effect on proliferation of DPSCs ([1]; Fasudil at not less than 10 μM (tested 1, 10, 100 μM), day 5, FIG. 7): inhibited proliferation of DPSCs | effect on cell proliferation of DPSCs, Fasudil combined use group ([1]; simvastatin 1 μM + mevalonate 1 mM + Fasudil 10 μM, day 5, FIG. 8): greater inhibition of cell proliferation of DPSCs than the comparison

O=C(O)C[C@H](O)C[C@H](O)/C=C/c1c(C2CC2)nc2ccccc2c1-c1ccc(F)cc1 [pitavastatin]
effect on proliferation of DPSCs compared with the control ([1]; day 5): inhibited proliferation of DPSCs with a significant difference

CCC(C)(C)C(=O)O[C@H]1C[C@@H](C)C=C2C=C[C@H](C)[C@H](CC[C@@H]3C[C@@H](O)CC(=O)O3)[C@H]21 [simvastatin]
proliferation of dental pulp stem cells (DPSCs) ([1]; SVS 1 μM, day 5 from the beginning of cultivation, vs control (PBS), significant decrease, p<0.0001): 0.73 fold | increase in gene expression of OCN compared with the BMP-2 ([2]; SVS 1 μM vs BMP-2 100 ng/ml, DPSCs, p=0.0002, Scheffe's multiple comparison test): 7.4 fold | increase in gene expression of OCN compared with the control ([2]; SVS 1 μM, DPSCs, p=0.0004, Scheffe's multiple comparison test): 18.8 fold | increase in gene expression of DSPP [3]: 10.9 fold

CC(C)n1c(/C=C/C(O)CC(O)CC(=O)O)c(-c2ccc(F)cc2)c2ccccc21 (stereo not drawn) [fluvastatin]
effect on proliferation of DPSCs compared with the control ([1]; day 5): inhibited proliferation of DPSCs with a significant difference | gene expression of OCN compared with the control and the comparison (BMP-2) [2]: increase in gene expression of OCN

CC[C@H](C)C(=O)O[C@H]1CCC=C2C=C[C@H](C)[C@H](CC[C@@H]3C[C@@H](O)CC(=O)O3)[C@H]21 [mevastatin]
effect on proliferation of DPSCs compared with the control ([1]; day 5): inhibited proliferation of DPSCs with a significant difference | gene expression of OCN compared with the control and the comparison (BMP-2) [2]: increase in gene expression of OCN

CC[C@H](C)C(=O)O[C@H]1C[C@@H](C)C=C2C=C[C@H](C)[C@H](CC[C@@H]3C[C@@H](O)CC(=O)O3)[C@H]21 [lovastatin]
effect on proliferation of DPSCs compared with the control ([1]; day 5): inhibited proliferation of DPSCs with a significant difference | gene expression of OCN compared with the control and the comparison (BMP-2) [2]: increase in gene expression of OCN

B1: Noggin: a BMP inhibitor (R&D systems) (protein, UniProt Q13253 28-232, looked up)
Noggin: QHYLHIRPAPSDNLPLVDLIEHPDPIFDPKEKDLNETLLRSLLGGHYDPGFMATSPPEDRPGGGGGAAGGAEDLAELDQLLRQRPSGAMPSEIKGLEFSEGLAQGKKQRLSKKLRRKLQMWLWSQTFCPVLYAWNDLGSRFWPRYVKVGSCFSKRSCSVPEGMVCKPSKSVHLTVLRWRCQRRGGQRCGWIPIQYPIISECKCSC
effect on cellular proliferation of DPSCs compared with the control ([1]; day 5, Example 4, FIG. 9, statin = simvastatin 1 μM): an effect on cellular proliferation of DPSCs was not observed
